Results taken from patent publication US20070117858A1, “SUBSTITUTED 5-HETEROARYL-1-PHENYL-PYRAZOLE CANNABINOID MODULATORS” (priority 2005, published 2007).
Read-outs that look alike come from different tables or passages of the source.

Key:
human CB1 receptor = biological target: T1, human CB1 receptor (Homo sapiens, UniProt P21554); assay: Cannabinoid CB1 receptor binding assay ([3H]-CP-55,940 displacement, SK-N-MC cell membranes); settings: for inhibition at 0.2 µM: 1.5 h, read-out: Cannabinoid CB1 Receptor Binding, percent inhibition
T1 construct: expressed in transfected cells; host or cells: SK-N-MC cells, stably transfected with pcDNA3 CB-1 (human); semi-purified membrane pellet
Protocol: (§1) Binding Assay for CB1 or CB2 Agonists or Inverse Agonists
(§2) The human CB1 and CB2 receptors were stably expressed in SK-N-MC cells transfected with pcDNA3 CB-1 (human) or pcDNA3 CB-2 (human). The cells were grown in T-180 cell culture flasks under standard cell culture conditions at 37° C. in a 5% CO2 atmosphere. The cells were harvested by trysinization and homogenized in a homogenization buffer (10 mM Tris, 0.2 mM MgCl2, 5 mM KCl, with protease inhibitors aprotinin, leupeptin, pepstatin A and bacitracin) and centrifuged (2000 g). The supernatant was then centrifuged in 2M sucrose (31,300 g) to produce a semi-purified membrane pellet. The pellet was resuspended in homogenization and stored at −80° C.
(§3) On the day of the assay, the pellet was thawed on ice and diluted in assay buffer (50 mM Tris-HCl, 5 mM MgCl2, 2.5 mM EDTA, 0.5 mg/mL fatty acid free bovine serum albumin, pH 7.5). The diluted membrane pellet was added with buffer, either a test compound or vehicle standard and the radioligand […] (0.2 nM) to the wells of a 96-well polypropylene plate. Non-specific binding was measured in wells containing W1N 55,212 (10 uM). The plate was covered and incubated for 90 minutes at 30° C. The contents were then aspirated onto a Packard Unifilter GF/C filter bottom plate prewet with 0.5% polyethyleneimine. The wells of the polypropylene plate were rinsed and aspirated seven times with a 0.9% saline-0.5% Tween 20 solution. The Unifilter plate was dried, scintillation cocktail was added to each well and the counts representing binding were quantitated in a TopCount scintillation counter.
(§4) For compounds tested, an IC50 binding value was obtained from percent inhibition studies in which various test concentrations were used. The binding value was calculated by linear regression.
(§5) For compounds without an IC50 binding value, the percent inhibition (%) was obtained at a test concentration of 0.2 μM.

human CB2 receptor = biological target: T2, human CB2 receptor (Homo sapiens, UniProt P34972); assay: Cannabinoid CB2 receptor binding assay ([3H]-CP-55,940 displacement, SK-N-MC cell membranes); settings: 1.5 h; test concentration of 0.2 μM; radioligand CP-55,940 0.2 nM; read-out: Cannabinoid CB2 Receptor Binding, percent inhibition
T2 construct: expressed in transfected cells; host or cells: SK-N-MC cells, stably transfected with pcDNA3 CB-2 (human); semi-purified membrane pellet
Protocol: as §1, §2, §3, §4, §5

T2 sequence (P34972 whole entry): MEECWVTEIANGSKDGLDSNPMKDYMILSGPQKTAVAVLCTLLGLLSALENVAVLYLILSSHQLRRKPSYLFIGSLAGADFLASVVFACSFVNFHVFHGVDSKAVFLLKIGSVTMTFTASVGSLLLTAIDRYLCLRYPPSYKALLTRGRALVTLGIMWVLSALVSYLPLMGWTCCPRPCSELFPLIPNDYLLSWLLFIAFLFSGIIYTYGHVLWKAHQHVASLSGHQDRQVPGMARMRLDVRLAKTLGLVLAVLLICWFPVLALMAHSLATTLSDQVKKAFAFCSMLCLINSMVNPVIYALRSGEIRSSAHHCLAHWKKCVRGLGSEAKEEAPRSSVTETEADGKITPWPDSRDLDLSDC
T1 sequence (P21554 whole entry): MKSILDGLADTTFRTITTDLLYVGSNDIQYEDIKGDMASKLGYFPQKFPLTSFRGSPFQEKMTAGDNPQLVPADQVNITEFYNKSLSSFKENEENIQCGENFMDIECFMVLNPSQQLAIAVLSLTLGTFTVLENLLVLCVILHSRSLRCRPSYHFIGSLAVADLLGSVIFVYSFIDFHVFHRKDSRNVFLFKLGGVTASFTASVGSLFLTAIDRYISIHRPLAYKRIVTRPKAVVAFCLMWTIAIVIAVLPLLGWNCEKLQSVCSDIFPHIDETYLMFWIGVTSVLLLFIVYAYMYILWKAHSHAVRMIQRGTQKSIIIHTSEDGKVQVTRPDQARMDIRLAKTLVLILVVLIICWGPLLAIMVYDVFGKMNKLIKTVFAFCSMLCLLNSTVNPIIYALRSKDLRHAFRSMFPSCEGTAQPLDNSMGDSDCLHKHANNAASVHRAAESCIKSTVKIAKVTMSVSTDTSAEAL

Compound | inhibition at 0.2 µM (human CB1 receptor) [%] | inhibition at 0.2 µM (human CB2 receptor) [%] | IC50 (human CB1 receptor; from percent inhibition studies at various test concentrations, calculated by linear regression, radioligand CP-55,940 0.2 nM, read-out: Cannabinoid CB1 Receptor Binding, IC50 binding value) [nM] | IC50 (human CB1 receptor) [nM]
Cc1c(C(=O)N[C@H](C)c2ccccc2)nn(-c2ccc(Cl)cc2Cl)c1-c1cc(Br)cs1 [Cpd 49, 5-(4-bromo-thiophen-2-yl)-1-(2,4-dichloro-phenyl)-4-methyl-1H-pyrazole-3-carboxylic acid [(1R)-1-phenyl-ethyl]-amide] | 76 | 63 | – | –
N#Cc1c(C(=O)N2CCCCC2)nn(-c2ccc(Cl)cc2Cl)c1-c1cccs1 [Cpd 21, 1-(2,4-dichloro-phenyl)-3-(piperidine-1-carbonyl)-5-thiophen-2-yl-1H-pyrazole-4-carbonitrile] | 12 | 3 | – | –
Cc1ccc(-c2c(C)c(C(=O)N[C@@H](C)c3ccccc3)nn2-c2ccc(Cl)cc2Cl)o1 [Cpd 54, 1-(2,4-dichloro-phenyl)-4-methyl-5-(5-methyl-furan-2-yl)-1H-pyrazole-3-carboxylic acid [(1S)-1-phenyl-ethyl]-amide] | – | 52 | 140 | –
C[C@@H](NC(=O)c1nn(-c2ccc(Cl)cc2Cl)c(-c2cccs2)c1C#N)c1ccccc1 [Cpd 16, 4-cyano-1-(2,4-dichloro-phenyl)-5-thiophen-2-yl-1H-pyrazole-3-carboxylic acid [(1R)-1-phenyl-ethyl]-amide] | 61 | 17 | – | –
Cc1c(C(=O)N[C@H](C)c2ccccc2)nn(-c2ccc(Cl)cc2Cl)c1-c1cccs1 [Cpd 6, 1-(2,4-dichloro-phenyl)-4-methyl-5-thiophen-2-yl-1H-pyrazole-3-carboxylic acid [(1R)-1-phenyl-ethyl]-amide] | 57 | 8 | – | –
Cc1c(C(=O)N[C@@H](C)C2CCCCC2)nn(-c2ccc(Cl)cc2Cl)c1-c1ccc(I)s1 [Cpd 39, 1-(2,4-dichloro-phenyl)-5-(5-iodo-thiophen-2-yl)-4-methyl-1H-pyrazole-3-carboxylic acid [(1S)-1-cyclohexyl-ethyl]-amide] | – | – | – | 18
Cc1c(C(=O)N[C@H](C)c2ccccc2)nn(-c2ccc(Cl)cc2Cl)c1-c1ccc(Cl)s1 [Cpd 14, 5-(5-chloro-thiophen-2-yl)-1-(2,4-dichloro-phenyl)-4-methyl-1H-pyrazole-3-carboxylic acid [(1R)-1-phenyl-ethyl]-amide] | – | 40 | – | 27
Cc1c(C(=O)N[C@@H](C)c2ccccn2)nn(-c2ccc(Cl)cc2Cl)c1-c1cccs1 [Cpd 9, 1-(2,4-dichloro-phenyl)-4-methyl-5-thiophen-2-yl-1H-pyrazole-3-carboxylic acid [(1S)-1-pyridin-2-yl-ethyl]-amide] | 25 | 8 | – | –
C[C@H](NC(=O)c1nn(-c2ccc(Cl)cc2Cl)c(-c2cccs2)c1C#N)c1ccccc1 [Cpd 19, 4-cyano-1-(2,4-dichloro-phenyl)-5-thiophen-2-yl-1H-pyrazole-3-carboxylic acid [(1S)-1-phenyl-ethyl]-amide] | 45 | 24 | – | –
Cc1ccc(-c2c(C)c(C(=O)NN3CCCCC3)nn2-c2ccc(Cl)cc2Cl)o1 [Cpd 53, 1-(2,4-dichloro-phenyl)-4-methyl-5-(5-methyl-furan-2-yl)-1H-pyrazole-3-carboxylic acid piperidin-1-ylamide] | 40 | 21 | – | –
C[C@@H](NC(=O)c1nn(-c2ccc(Cl)cc2Cl)c(-c2ccc(Cl)s2)c1C#N)c1ccccc1 [Cpd 25, 5-(5-chloro-thiophen-2-yl)-4-cyano-1-(2,4-dichloro-phenyl)-1H-pyrazole-3-carboxylic acid [(1R)-1-phenyl-ethyl]-amide] | – | 13 | – | 16
CCc1c(C(=O)N[N+]2(C)CCCCC2)nn(-c2ccc(Cl)cc2Cl)c1-c1ccc(Br)s1 [Cpd 52, 1-{[5-(5-bromo-thiophen-2-yl)-1-(2,4-dichloro-phenyl)-4-ethyl-1H-pyrazole-3-carbonyl]-amino}-1-methyl-piperidinium] | 51 | 0 | – | –
Cc1c(C(=O)NN2CC3CCCC3C2)nn(-c2ccc(Cl)cc2Cl)c1-c1cccs1 (stereo not drawn) [Cpd 11, 1-(2,4-dichloro-phenyl)-4-methyl-5-thiophen-2-yl-1H-pyrazole-3-carboxylic acid (hexahydro-cyclopenta[c]pyrrol-2-yl)-amide] | 53 | 0 | – | –
Cc1ccc(-c2c(C)c(C(=O)N[C@H](C)c3ccccn3)nn2-c2ccc(Cl)cc2Cl)o1 [Cpd 56, 1-(2,4-dichloro-phenyl)-4-methyl-5-(5-methyl-furan-2-yl)-1H-pyrazole-3-carboxylic acid [(1R)-1-pyridin-2-yl-ethyl]-amide] | 41 | 26 | – | –
Cc1c(C(=O)N[C@@H](C)C2CCCCC2)nn(-c2ccc(Cl)cc2Cl)c1-c1ccc(Cl)s1 [Cpd 12, 5-(5-chloro-thiophen-2-yl)-1-(2,4-dichloro-phenyl)-4-methyl-1H-pyrazole-3-carboxylic acid [(1S)-1-cyclohexyl-ethyl]-amide] | – | 40 | – | 15
Cc1c(C(=O)N2CCCCC2)nn(-c2ccc(Cl)cc2Cl)c1-c1cc(Br)cs1 [Cpd 45, [5-(4-bromo-thiophen-2-yl)-1-(2,4-dichloro-phenyl)-4-methyl-1H-pyrazol-3-yl]-piperidin-1-yl-methanone] | 33 | 12 | – | –
CCc1c(C(=O)NN2CCC(O)CC2)nn(-c2ccc(Cl)cc2Cl)c1-c1ccc(Br)s1 [Cpd 51, 5-(5-bromo-thiophen-2-yl)-1-(2,4-dichloro-phenyl)-4-ethyl-1H-pyrazole-3-carboxylic acid (4-hydroxy-piperidin-1-yl)-amide] | 63 | 13 | – | –
C[C@@H](NC(=O)c1nn(-c2ccc(Cl)cc2Cl)c(-c2cccs2)c1C#N)C1CCCCC1 [Cpd 18, 4-cyano-1-(2,4-dichloro-phenyl)-5-thiophen-2-yl-1H-pyrazole-3-carboxylic acid [(1R)-1-cyclohexyl-ethyl]-amide] | 66 | 21 | – | –
N#Cc1c(C(=O)NN2CCCCC2)nn(-c2ccc(Cl)cc2Cl)c1-c1ccc(Cl)s1 [Cpd 23, 5-(5-chloro-thiophen-2-yl)-4-cyano-1-(2,4-dichloro-phenyl)-1H-pyrazole-3-carboxylic acid piperidin-1-ylamide] | – | 22 | – | 71
Cc1c(C(=O)NN2CCCCC2)nn(-c2ccc(Cl)cc2Cl)c1-c1ccc(F)s1 [Cpd 28, 1-(2,4-dichloro-phenyl)-5-(5-fluoro-thiophen-2-yl)-4-methyl-1H-pyrazole-3-carboxylic acid piperidin-1-ylamide] | 69 | 20 | – | –
Cc1c(C(=O)N[C@@H](C)c2ccccn2)nn(-c2ccc(Cl)cc2Cl)c1-c1ccc(I)s1 [Cpd 37, 1-(2,4-dichloro-phenyl)-5-(5-iodo-thiophen-2-yl)-4-methyl-1H-pyrazole-3-carboxylic acid [(1S)-1-pyridin-2-yl-ethyl]-amide] | – | – | – | 31
Cc1c(C(=O)NN2CCCCC2)nn(-c2ccc(Cl)cc2Cl)c1-c1ccc(Cl)s1 [Cpd 2, 5-(5-chloro-thiophen-2-yl)-1-(2,4-dichloro-phenyl)-4-methyl-1H-pyrazole-3-carboxylic acid piperidin-1-ylamide] | – | – | – | 40
Cc1c(C(=O)N[C@@H](C)c2ccccc2)nn(-c2ccc(Cl)cc2Cl)c1-c1ccc(I)s1 [Cpd 36, 1-(2,4-dichloro-phenyl)-5-(5-iodo-thiophen-2-yl)-4-methyl-1H-pyrazole-3-carboxylic acid [(1S)-1-phenyl-ethyl]-amide] | – | – | – | 17
Cc1c(C(=O)N[C@H](C)c2ccccc2)nn(-c2ccc(Cl)cc2Cl)c1-c1ccc(I)s1 [Cpd 38, 1-(2,4-dichloro-phenyl)-5-(5-iodo-thiophen-2-yl)-4-methyl-1H-pyrazole-3-carboxylic acid [(1R)-1-phenyl-ethyl]-amide] | – | – | – | 23
Cc1c(C(=O)N[C@@H](C)c2ccccn2)nn(-c2ccc(Cl)cc2Cl)c1-c1ccc(Cl)s1 [Cpd 1, 5-(5-chloro-thiophen-2-yl)-1-(2,4-dichloro-phenyl)-4-methyl-1H-pyrazole-3-carboxylic acid [(1S)-1-pyridin-2-yl-ethyl]-amide] | – | – | – | 38
Cc1c(C(=O)N[C@@H](C)c2ccccc2)nn(-c2ccc(Cl)cc2Cl)c1-c1ccc(Cl)s1 [Cpd 3, 5-(5-chloro-thiophen-2-yl)-1-(2,4-dichloro-phenyl)-4-methyl-1H-pyrazole-3-carboxylic acid [(1S)-1-phenyl-ethyl]-amide] | – | – | – | 35
